Measurements taken from patent publication US20260256792A1, “TREATMENT OF CHRONIC SPONTANEOUS URTICARIA BY ADMINISTERING (R)-2-[3-[4-AMINO-3-(2-FLUORO-4-PHENOXY-PHENYL)PYRAZOLO[3,4-D]PYRIMIDIN-1-YL]PIPERIDINE-1-CARBONYL]-4-METHYL-4-[4-(OXETAN-3-YL)PIPERAZIN-1-YL]PENT-2-ENENITRILE” (priority 2023, published 2026).

Test system: moderate-to-severe chronic spontaneous urticaria (CSU)
Assay: Phase 2 CSU study: itch severity score over 7 days (ISS7)
Format: in vivo, human
Settings: for Change from Baseline in ISS7 at Week 12, Mean / Change from Baseline in ISS7 at Week 12, LS Mean / Change from Baseline in ISS7 at Week 12, LS Mean Diff vs. placebo: Omalizumab-naïve population; for ISS7 change from baseline at Week 12, LS Mean / ISS7 change from baseline at Week 12, LS Mean Diff vs. placebo: ANCOVA
Text: The study comprises a 12 week, randomized, double-blind, placebo-controlled, multi-center, dose-ranging efficacy and safety phase, followed by a 40 week open label extension (OLE) phase (see FIG. 1). The study consists of three phases and an optional OLE phase. […] Clinically, CSU is characterized by the spontaneous and recurrent appearance of pruritic hives. The proposed primary endpoints were the UAS7 at Week 12 in EU and EU reference countries and the ISS7 in the US. Regardless of where a participant was from, all assessments were the same. The UAS7 score is a composite score containing both the HSS7 and the ISS7. This allowed a global assessment of the two key components of urticaria: hives and itch. […] The UAS is a validated PRO measure. […] The daily UAS scores range from 0 to 6 point/day. […] Patients were to complete the UAS using the e-diary. […] The following secondary endpoints were to be analyzed using the same approach as for the primary endpoint: • Change from baseline in UAS7 at Week 4 • Change from baseline in UAS7 at Week 12 (for US and US reference countries) • Change from baseline in ISS7 at Week 12 (except US and US reference countries) • Change from baseline in HSS7 at Week 12

[1] = 400 mg TID, Baseline ISS7 score <13
[2] = 400 mg TID, Baseline ISS7 score ≥13
[3] = 400 mg TID, Baseline Total IgE (IU/mL) <100
[4] = 400 mg TID, Baseline Total IgE (IU/mL) <300
[5] = 400 mg TID, Baseline Total IgE (IU/mL) ≥100
[6] = 400 mg TID, Baseline Total IgE (IU/mL) ≥300
[7] = 400 mg TID, Baseline UAS7 score <28
[8] = 400 mg TID, Baseline UAS7 score ≥28
[9] = 400 mg TID, Duration of disease (years) 2-10
[10] = 400 mg TID, Duration of disease (years) <2
[11] = 400 mg TID, Duration of disease (years) >10
[12] = 400 mg TID, Ethnicity Non-Hispanic
[13] = 400 mg TID, History of angioedema No
[14] = 400 mg TID, History of angioedema Yes
[15] = 400 mg TID, Race All the Others
[16] = 400 mg TID, Region Eastern Europe
[17] = 400 mg TID, Region Latin America
[18] = 400 mg TID, Region Western Countries
[19] = 400 mg TID, omalizumab-naïve population
[20] = 400 mg TID, omalizumab-naïve population with outlier removed
[21] = End of Study, 400 mg BID, Omalizumab-Naïve

Compound: CC(C)(C=C(C#N)C(=O)N1CCC[C@@H](n2nc(-c3ccc(Oc4ccccc4)cc3F)c3c(N)ncnc32)C1)N1CCN(C2COC2)CC1 [rilzabrutinib, (R)-2-[3-[4-amino-3-(2-fluoro-4-phenoxy-phenyl)pyrazolo[3,4-d]pyrimidin-1-yl]piperidine-1-carbonyl]-4-methyl-4-[4-(oxetan-3-yl)piperazin-1-yl]pent-2-enenitrile]
- Change from Baseline in ISS7 at Week 12, Mean (400 mg TID, Baseline H1-antihistamines dose 2 to 4-fold standard dose): −12.76
- Change from Baseline in ISS7 at Week 12, LS Mean [1]: −3.73
- Change from Baseline in ISS7 at Week 12, LS Mean Diff vs. placebo [1]: −1.01
- Change from Baseline in ISS7 at Week 12, Mean [1]: −3.50
- Change from Baseline in ISS7 at Week 12, LS Mean [2]: −10.18
- Change from Baseline in ISS7 at Week 12, LS Mean Diff vs. placebo [2]: −4.45
- Change from Baseline in ISS7 at Week 12, Mean [2]: −10.79
- Change from Baseline in ISS7 at Week 12, LS Mean [3]: −9.19
- Change from Baseline in ISS7 at Week 12, LS Mean Diff vs. placebo [3]: −4.95
- Change from Baseline in ISS7 at Week 12, Mean [3]: −11.17
- Change from Baseline in ISS7 at Week 12, LS Mean [4]: −9.55
- Change from Baseline in ISS7 at Week 12, LS Mean Diff vs. placebo [4]: 5.04
- Change from Baseline in ISS7 at Week 12, LS Mean [5]: −9.13
- Change from Baseline in ISS7 at Week 12, LS Mean Diff vs. placebo [5]: −3.10
- Change from Baseline in ISS7 at Week 12, Mean [5]: −9.49
- Change from Baseline in ISS7 at Week 12, LS Mean [6]: −8.12
- Change from Baseline in ISS7 at Week 12, LS Mean Diff vs. placebo [6]: −1.58
- Change from Baseline in ISS7 at Week 12, Mean [6]: 8.74
- Change from Baseline in ISS7 at Week 12, LS Mean [7]: −6.43
- Change from Baseline in ISS7 at Week 12, LS Mean Diff vs. placebo [7]: −3.26
- Change from Baseline in ISS7 at Week 12, Mean [7]: −7.61
- Change from Baseline in ISS7 at Week 12, LS Mean [8]: −10.62
- Change from Baseline in ISS7 at Week 12, LS Mean Diff vs. placebo [8]: −4.02
- Change from Baseline in ISS7 at Week 12, Mean [8]: −11.99
- Change from Baseline in ISS7 at Week 12, LS Mean [9]: −8.84
- Change from Baseline in ISS7 at Week 12, LS Mean Diff vs. placebo [9]: −1.82
- Change from Baseline in ISS7 at Week 12, Mean [9]: −9.37
- Change from Baseline in ISS7 at Week 12, LS Mean [10]: −9.77
- Change from Baseline in ISS7 at Week 12, LS Mean Diff vs. placebo [10]: −6.12
- Change from Baseline in ISS7 at Week 12, Mean [10]: −10.93
- Change from Baseline in ISS7 at Week 12, LS Mean [11]: −9.33
- Change from Baseline in ISS7 at Week 12, LS Mean Diff vs. placebo [11]: −5.64
- Change from Baseline in ISS7 at Week 12, Mean [11]: −11.00
- Change from Baseline in ISS7 at Week 12, LS Mean (400 mg TID, Ethnicity Hispanic): 7.36
- Change from Baseline in ISS7 at Week 12, LS Mean Diff vs. placebo (400 mg TID, Ethnicity Hispanic): −0.35
- Change from Baseline in ISS7 at Week 12, Mean (400 mg TID, Ethnicity Hispanic): −8.13
- Change from Baseline in ISS7 at Week 12, LS Mean [12]: −10.16
- Change from Baseline in ISS7 at Week 12, LS Mean Diff vs. placebo [12]: −5.69
- Change from Baseline in ISS7 at Week 12, Mean [12]: −11.83
- Change from Baseline in ISS7 at Week 12, Mean (400 mg TID, Gender Male): −7.08
- Change from Baseline in ISS7 at Week 12, LS Mean [13]: −9.56
- Change from Baseline in ISS7 at Week 12, LS Mean Diff vs. placebo [13]: −4.22
- Change from Baseline in ISS7 at Week 12, Mean [13]: −10.86
- Change from Baseline in ISS7 at Week 12, LS Mean [14]: −8.24
- Change from Baseline in ISS7 at Week 12, LS Mean Diff vs. placebo [14]: −2.99
- Change from Baseline in ISS7 at Week 12, Mean [14]: −9.01
- ISS7 at Week 12, Mean (400 mg TID, ITT population): 5.59
- ISS7 at Week 12, Median (400 mg TID, ITT population): 6.00
- ISS7 change from baseline at Week 12, Mean (400 mg TID, ITT population): −10.68
- ISS7 change from baseline at Week 12, Median (400 mg TID, ITT population): −10.67
- LS mean change from baseline in ISS7 at Week 12 (400 mg TID, ITT population): −9.58 points
- ISS7 change from baseline at Week 12, LS Mean (400 mg TID, ITT population): −9.58 points
- ISS7 change from baseline at Week 12, LS Mean Diff vs. placebo (400 mg TID, ITT population): −3.26
- decrease from baseline in ISS7 (400 mg TID, ITT population, belongs to LS mean change −6.65): 40.41%
- LS mean change in ISS7 from baseline (see Table 29) (400 mg TID, ITT population, following one week of treatment): −6.65 points
- Change from Baseline in ISS7 at Week 12, LS Mean [15]: −8.74
- Change from Baseline in ISS7 at Week 12, LS Mean Diff vs. placebo [15]: −5.27
- Change from Baseline in ISS7 at Week 12, Mean [15]: −8.74
- Change from Baseline in ISS7 at Week 12, LS Mean (400 mg TID, Race White): −9.18
- Change from Baseline in ISS7 at Week 12, LS Mean Diff vs. placebo (400 mg TID, Race White): −3.17
- Change from Baseline in ISS7 at Week 12, Mean (400 mg TID, Race White): −10.88
- Change from Baseline in ISS7 at Week 12, LS Mean (400 mg TID, Region Asia): −8.33
- Change from Baseline in ISS7 at Week 12, LS Mean Diff vs. placebo (400 mg TID, Region Asia): −4.87
- Change from Baseline in ISS7 at Week 12, Mean (400 mg TID, Region Asia): −8.21
- Change from Baseline in ISS7 at Week 12, LS Mean [16]: −14.02
- Change from Baseline in ISS7 at Week 12, LS Mean Diff vs. placebo [16]: −1.35
- Change from Baseline in ISS7 at Week 12, Mean [16]: −13.17
- Change from Baseline in ISS7 at Week 12, LS Mean [17]: −6.07
- Change from Baseline in ISS7 at Week 12, LS Mean Diff vs. placebo [17]: 0.52
- Change from Baseline in ISS7 at Week 12, Mean [17]: −7.34
- Change from Baseline in ISS7 at Week 12, LS Mean [18]: 9.58
- Change from Baseline in ISS7 at Week 12, LS Mean Diff vs. placebo [18]: −5.03
- Change from Baseline in ISS7 at Week 12, Mean [18]: −11.79
- ISS7 at Week 12, Mean [19]: 5.77
- ISS7 at Week 12, Median [19]: 7.00
- ISS7 change from baseline at Week 12, Mean [19]: −10.27
- ISS7 change from baseline at Week 12, Median [19]: −10.33
- LS mean change from baseline in ISS7 at Week 12 [19]: −9.21
- LS mean reduction in ISS7 (see Table 30) [19]: −6.13
- ISS7 at Week 12, Mean [20]: 5.77
- ISS7 at Week 12, Median [20]: 7.00
- ISS7 change from baseline at Week 12, Mean [20]: −10.27
- ISS7 change from baseline at Week 12, Median [20]: −10.33
- ISS7 change from baseline at Week 12, LS Mean [20]: −9.57 points
- ISS7 change from baseline at Week 12, LS Mean Diff vs. placebo [20]: −3.86
- LS mean change from baseline in ISS7 at Week 12 (400 mg TID, omalizumab-naïve population, outlier removed): −9.57
- ISS7 change from baseline at Week 12, LS Mean [19]: −9.21 points
- ISS7 change from baseline at Week 12, LS Mean Diff vs. placebo [19]: −3.44
- ISS7 Mean (SD) [21]: 7.80 (8.76)
- ISS7 Median [21]: 7.00
- ISS7 Mean (SD) (End of Study, 400 mg QPM, Omalizumab-Naïve): 5.74 (8.03)
